These are literature values, as cited in patent publication US20210196801A1, “Starting Dose of PTH Conjugates” (Ascendis Pharma Bone Diseases A/S, priority 2018, published 2021).

Assay in data set [1]: not given
The source holds these as a separate data set.

Like-named read-outs stand apart in the source and are kept apart here.

Regarding `CC[C@H](C)[C@H](NC(=O)[C@H](CCC(=O)O)NC(=O)[C@H](CO)NC(=O)[C@@H](NC(=O)[C@@H](N)CO)C(C)C)C(=O)N[C@@H](CCC(N)=O)C(=O)N[C@@H](CC(C)C)C(=O)N[C@@H](CCSC)C(=O)N[C@@H](Cc1cnc[nH]1)C(=O)N[C@@H](CC(N)=O)C(=O)N[C@@H](CC(C)C)C(=O)NCC(=O)N[C@@H](CCCCN)C(=O)N[C@@H](Cc1cnc[nH]1)C(=O)N[C@@H](CC(C)C)C(=O)N[C@@H](CC(N)=O)C(=O)N[C@@H](CO)C(=O)N[C@@H](CCSC)C(=O)N[C@@H](CCC(=O)O)C(=O)N[C@@H](CCCN=C(N)N)C(=O)N[C@H](C(=O)N[C@@H](CCC(=O)O)C(=O)N[C@@H](Cc1c[nH]c2ccccc12)C(=O)N[C@@H](CC(C)C)C(=O)N[C@@H](CCCN=C(N)N)C(=O)N[C@@H](CCCCN)C(=O)N[C@@H](CCCCN)C(=O)N[C@@H](CC(C)C)C(=O)N[C@@H](CCC(N)=O)C(=O)N[C@@H](CC(=O)O)C(=O)N[C@H](C(=O)N[C@@H](Cc1cnc[nH]1)C(=O)N[C@@H](CC(N)=O)C(=O)N[C@@H](Cc1ccccc1)C(=O)O)C(C)C)C(C)C` [Teriparatide], the half-life entry (after IV administration) is “about 5 minutes” and the half-life (after subcutaneous administration, due to prolonged absorption) is approximately 1 h.

As for “Natpara: PTH(1-84), approved for once-daily subcutaneous injection in patients with hypoparathyroidism”, the half-life result in data set [1] (IV) is given as “about 5 minutes”; in data set [1] (after subcutaneous administration), “about 3 hours”.
